Assay results taken from paper PMC8224985 (European journal of medicinal chemistry, 2020).

Experiments:
human SphK2 = molecular target: T1, human SphK2 (Homo sapiens, UniProt Q9NRA0); assay: Recombinant hSphK2 activity, single-concentration screen; conditions: for inhibition at 0.3 µM: read-out: inhibition of hSphK2 activity, compound 0.3 μM
T1 sequence (Q9NRA0 1-654): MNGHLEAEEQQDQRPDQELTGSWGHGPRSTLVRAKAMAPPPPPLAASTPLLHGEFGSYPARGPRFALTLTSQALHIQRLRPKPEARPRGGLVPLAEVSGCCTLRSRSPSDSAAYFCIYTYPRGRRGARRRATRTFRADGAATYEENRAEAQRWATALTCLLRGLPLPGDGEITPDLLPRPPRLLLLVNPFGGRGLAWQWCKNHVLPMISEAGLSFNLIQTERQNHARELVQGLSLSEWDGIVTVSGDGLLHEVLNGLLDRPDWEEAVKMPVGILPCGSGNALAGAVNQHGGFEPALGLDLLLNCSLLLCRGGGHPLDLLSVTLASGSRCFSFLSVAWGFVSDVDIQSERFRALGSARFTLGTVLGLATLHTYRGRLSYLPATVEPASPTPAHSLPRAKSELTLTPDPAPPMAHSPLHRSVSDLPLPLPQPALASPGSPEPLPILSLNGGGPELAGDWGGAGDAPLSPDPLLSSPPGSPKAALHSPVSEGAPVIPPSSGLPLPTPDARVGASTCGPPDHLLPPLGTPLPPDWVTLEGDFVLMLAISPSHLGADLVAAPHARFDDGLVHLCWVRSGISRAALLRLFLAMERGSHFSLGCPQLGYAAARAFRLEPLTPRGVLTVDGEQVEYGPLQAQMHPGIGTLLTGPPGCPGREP

U937 cells = assay: S1P levels in U937 cells by LC-MS/MS; type: cell-based; conditions: 0.1 to 1 μM, 2 hours, duplicate
SphK2 [1] = assay: FTY720-P formation in U937 cells treated with FTY720; type: cell-based; conditions: 1 μM FTY720, compound 0.1 μM to 1 μM, 2 hours, duplicate
SphK2 [2] = conditions: read-out: SphK2 Ki; cited from earlier work
human SphK1 = human SphK1 (Homo sapiens, UniProt Q9NYA1); assay: Recombinant hSphK1 activity, single-concentration screen; conditions: compound 1 μM
Sequence of human SphK1 (Q9NYA1 whole entry): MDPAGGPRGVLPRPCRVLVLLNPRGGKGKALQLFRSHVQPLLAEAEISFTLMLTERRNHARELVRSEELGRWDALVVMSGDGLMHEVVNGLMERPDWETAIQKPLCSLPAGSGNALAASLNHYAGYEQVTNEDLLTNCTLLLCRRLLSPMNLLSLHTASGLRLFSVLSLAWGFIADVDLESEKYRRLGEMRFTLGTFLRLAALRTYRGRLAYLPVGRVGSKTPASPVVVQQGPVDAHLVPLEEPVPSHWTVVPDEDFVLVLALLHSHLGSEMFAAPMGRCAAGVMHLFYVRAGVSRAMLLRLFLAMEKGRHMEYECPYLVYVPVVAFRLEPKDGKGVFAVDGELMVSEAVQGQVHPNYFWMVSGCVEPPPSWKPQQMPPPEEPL

SMILES	inhibition at 0.3 µM (human SphK2) [%]	other results
CCCCCCCCCCn1ccc2cc(-c3noc([C@@H]4CCCN4C(=N)N)n3)ccc21 [Compound 6s, (S)-Amino(2-(3-(1-decyl-1H-indol-5-yl)-1,2,4-oxadiazol-5-yl)pyrrolidin-1-yl)methaniminium chloride]	70	–
CCCCCCCCCCCCn1cc(-c2noc([C@@H]3CCCN3C(=N)N)n2)c2ccccc21 [Compound 6j, (S)-Amino(2-(3-(1-dodecyl-1H-indol-3-yl)-1,2,4-oxadiazol-5-yl)pyrrolidin-1-yl)methaniminium chloride]	> 50	–
CCCCCCCCCn1ccc2cc(-c3noc([C@@H]4CCCN4C(=N)N)n3)ccc21.Cl [Compound 6r, (S)-Amino(2-(3-(1-nonyl-1H-indol-5-yl)-1,2,4-oxadiazol-5-yl)pyrrolidin-1-yl)methaniminium chloride]	–	S1P levels in cells (U937 cells): dose-dependent decrease; FTY720-P levels in cells (SphK2 [1]): concomitant decrease in FTY720-P in a dose dependent manner
O=C(NCc1ccncc1)C12CC3CC(C1)CC(c1ccc(Cl)cc1)(C3)C2 [ABC294640]	–	Ki (SphK2 [2]): 10 µM
CCCCCCCCCCn1cc(-c2noc([C@@H]3CCCN3C(=N)N)n2)c2ccccc21 [Compound 6h, (S)-Amino(2-(3-(1-decyl-1H-indol-3-yl)-1,2,4-oxadiazol-5-yl)pyrrolidin-1-yl)methaniminium chloride]	> 50	–
CCCCCCCCCCn1ccc2c(-c3noc([C@@H]4CCCN4C(=N)N)n3)cccc21 [Compound 6n, (S)-Amino(2-(3-(1-decyl-1H-indol-4-yl)-1,2,4-oxadiazol-5-yl)pyrrolidin-1-yl)methaniminium chloride]	36	–
CCCCCCCCCn1cc(-c2noc(C[C@@H]3CCCN3C(=N)N)n2)c2ccccc21.Cl [Compound 11, (S)-Amino(2-((3-(1-nonyl-1H-indol-3-yl)-1,2,4-oxadiazol-5-yl)methyl)pyrrolidin-1-yl)methaniminium chloride]	–	effect on hSphK1 activity (in words) (human SphK1): inactive; effect on hSphK2 activity (in words) (human SphK2; compound 0.3 μM): inactive
CCCCCCCCCCn1ccc2ccc(-c3noc([C@@H]4CCCN4C(=N)N)n3)cc21 [Compound 6w, (S)-Amino(2-(3-(1-decyl-1H-indol-6-yl)-1,2,4-oxadiazol-5-yl)pyrrolidin-1-yl)methaniminium chloride]	32	–
